Assays:
[1] = biological target: D(3) dopamine receptor (Homo sapiens, UniProt P35462); test: (§1) Membranes were incubated in a total volume of 200 ul with a fixed concentration of radioligand (final concentration approximately 0.7 nM [3H]-spiperone for D2, 0.5 nM [3H]-spiperone for D3, and 1.1 nM [3H]-ketanserin for 5-HT2A) and ten concentrations of test compound in ranging between 10 uM-0.1 nM for 1 h at RT. At the end of the incubation, the reaction mixtures were filtered on to unifilter 96-well white microplates with bonded GF/C filters.
[2] = biological target: 5-hydroxytryptamine receptor 2A (Homo sapiens, UniProt P28223); test: as §1
5-hydroxytryptamine receptor 2A, sequence (P28223 whole entry): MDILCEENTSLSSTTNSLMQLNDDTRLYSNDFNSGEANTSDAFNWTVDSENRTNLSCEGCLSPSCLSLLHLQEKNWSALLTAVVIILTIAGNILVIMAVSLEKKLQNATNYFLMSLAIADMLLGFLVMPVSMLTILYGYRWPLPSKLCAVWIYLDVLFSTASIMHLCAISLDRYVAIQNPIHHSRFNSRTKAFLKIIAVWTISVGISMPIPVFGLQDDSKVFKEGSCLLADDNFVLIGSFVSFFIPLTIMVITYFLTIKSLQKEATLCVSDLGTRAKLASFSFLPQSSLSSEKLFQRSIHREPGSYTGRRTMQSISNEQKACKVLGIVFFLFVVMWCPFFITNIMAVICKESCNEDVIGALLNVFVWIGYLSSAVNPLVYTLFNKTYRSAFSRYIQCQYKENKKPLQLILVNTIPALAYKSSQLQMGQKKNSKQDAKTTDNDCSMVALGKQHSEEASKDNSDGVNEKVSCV

D(3) dopamine receptor, sequence (P35462 whole entry): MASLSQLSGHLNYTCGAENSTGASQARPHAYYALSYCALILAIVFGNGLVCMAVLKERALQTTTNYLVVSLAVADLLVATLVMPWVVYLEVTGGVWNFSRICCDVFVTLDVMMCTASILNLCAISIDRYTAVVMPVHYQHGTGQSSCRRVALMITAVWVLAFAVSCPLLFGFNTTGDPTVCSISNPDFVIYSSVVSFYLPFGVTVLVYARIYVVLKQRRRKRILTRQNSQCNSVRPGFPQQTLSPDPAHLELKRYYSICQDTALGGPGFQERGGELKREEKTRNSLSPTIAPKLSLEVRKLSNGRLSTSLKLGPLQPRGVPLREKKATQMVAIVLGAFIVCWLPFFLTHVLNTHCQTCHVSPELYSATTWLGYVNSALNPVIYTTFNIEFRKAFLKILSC

Structure (SMILES)	Ki [1]	Ki [2]
O=S(=O)(N[C@H]1CC[C@H](CCN2CCC(c3noc4cc(F)ccc34)CC2)CC1)c1cccnc1	1.95 nM	2.48 nM
COCCC(=O)N[C@H]1CC[C@H](CCN2CCC(c3noc4ccc(F)cc34)CC2)CC1	3.1 nM	37 nM
O=C(N[C@H]1CC[C@H](CCN2CCC(c3noc4cc(F)ccc34)CC2)CC1)c1ccc2c(c1)OCO2	2.75 nM	1.71 nM

From ChEMBL document CHEMBL3886245, “Dual modulators of 5HT2A and D3 receptors” (2014)
